According to publication PMC1931592 (BMC Pharmacology, 2007):
“Also recorded” adds a separate entry of the source.

Experiments:
Type in all cases: biochemical
[1] = target: T1, substituted (S209A) caspase-3 (Homo sapiens, UniProt P42574, S209A); assay: Cleavage assay with substituted (S209A) caspase-3 versus wild-type; settings: S209A versus wild-type caspase-3
T1 construct: Active caspase-3 was generated by coexpression of HA-p17 and HA-p12 (wild type or mutant) subunits in vitro; (position 176–208, antisense); made in house
T1 sequence (P42574 29-175 limits assumed): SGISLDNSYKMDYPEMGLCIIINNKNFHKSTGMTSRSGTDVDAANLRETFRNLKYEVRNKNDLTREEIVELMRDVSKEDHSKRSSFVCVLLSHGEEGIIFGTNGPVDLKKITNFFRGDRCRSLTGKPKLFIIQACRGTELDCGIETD
T1 sequence (P42574 176-277 S209A limits assumed): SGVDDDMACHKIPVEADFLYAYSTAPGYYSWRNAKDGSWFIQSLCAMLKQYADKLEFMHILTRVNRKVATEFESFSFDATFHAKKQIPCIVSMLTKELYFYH
Method: (§1) To characterize the potency and selectivity of Ac-DNLD-MCA for caspases-3, -7, -8, and -9, in vitro caspase activity assays were performed. One unit (the amount of enzyme that cleaves 1 nmol of substrate per hr) of each active recombinant human caspase was added to a reaction mixture containing 200 μM Ac-DNLD-MCA or Ac-DEVD-MCA in assay buffer (100 mM NaCl, 50 mM HEPES, 10 mM DTT, 1 mM EDTA, 10% glycerol, and 0.1% CHAPS, pH 7.4). Then, the liberation of MCA was monitored continuously at 37°C using a 96-well plate reader Wallace 1420 ARVOsx (PerkinElmer) with an excitation wavelength of 390 nm and an emission wavelength of 460 nm.
Site-directed mutagenesis of p12 subunit (S209A) was introduced using PCR. The following primers were used for the preparation of the mutant, 5'-[…] TGACATG-3' (position 176–208, sense) and 5'-[…]-3' (position 176–208, antisense); 5'-[…]-3' (position 209–277, sense) and 5'-[…]-3' (position 209–277, antisense). The mutated site (Ser209→Ala) was shown in bold letter. After each fragments were amplified and ligated, they were tagged with HA and subcloned into pcDNA3 B (Invitrogen) at the EcoRV site. After comfirming the sequences, the inserts were excited by XhoI digestion and recloned into the XhoI site of pURE4 (Post Genome Institute Co., Ltd.) […]

[2] = target: T2, recombinant human caspase-9 (Homo sapiens, UniProt P55211); assay: Ac-DNLD-MCA and Ac-DEVD-MCA cleavage assay, caspase-9; settings: 200 μM substrate, 37°C, MCA liberation
T2 sequence (P55211 140-315 limits assumed): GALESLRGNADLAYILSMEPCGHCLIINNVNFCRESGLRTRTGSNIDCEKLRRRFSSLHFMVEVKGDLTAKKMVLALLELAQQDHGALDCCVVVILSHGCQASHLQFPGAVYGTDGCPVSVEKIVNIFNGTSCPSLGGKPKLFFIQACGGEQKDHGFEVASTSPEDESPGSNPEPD
T2 sequence (P55211 331-416 limits assumed): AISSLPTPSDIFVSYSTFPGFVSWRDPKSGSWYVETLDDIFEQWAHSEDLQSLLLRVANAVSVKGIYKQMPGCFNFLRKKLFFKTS
Method: as §1

[3] = target: T3, recombinant human caspase-8 (Homo sapiens, UniProt Q14790); assay: Ac-DNLD-MCA and Ac-DEVD-MCA cleavage assay, caspase-8; settings: 200 μM substrate, 37°C, MCA liberation
T3 construct: each active recombinant human caspase was incubated; purchased Calbiochem
T3 sequence (Q14790 217-374 limits assumed): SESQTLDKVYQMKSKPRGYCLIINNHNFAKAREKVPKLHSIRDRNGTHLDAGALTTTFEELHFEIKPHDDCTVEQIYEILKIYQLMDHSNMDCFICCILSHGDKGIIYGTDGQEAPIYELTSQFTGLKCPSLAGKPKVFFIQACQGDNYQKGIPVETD
T3 sequence (Q14790 385-479 limits assumed): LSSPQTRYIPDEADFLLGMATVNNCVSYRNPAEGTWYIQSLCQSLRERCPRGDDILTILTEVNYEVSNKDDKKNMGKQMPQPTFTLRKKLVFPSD
Method: as §1

[4] = target: T4, recombinant human caspase-7 (Homo sapiens, UniProt P55210); assay: Ac-DNLD-MCA and Ac-DEVD-MCA cleavage assay, caspase-7; settings: 200 μM substrate, 37°C, MCA liberation
T4 construct: each active recombinant human caspase was incubated; purchased Calbiochem
T4 sequence (P55210 24-198 limits assumed): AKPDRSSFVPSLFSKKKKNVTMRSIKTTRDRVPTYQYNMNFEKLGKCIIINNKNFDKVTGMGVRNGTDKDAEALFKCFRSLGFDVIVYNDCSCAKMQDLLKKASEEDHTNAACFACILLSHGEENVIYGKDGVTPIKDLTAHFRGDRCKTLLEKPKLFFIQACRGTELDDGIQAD
T4 sequence (P55210 207-303 limits assumed): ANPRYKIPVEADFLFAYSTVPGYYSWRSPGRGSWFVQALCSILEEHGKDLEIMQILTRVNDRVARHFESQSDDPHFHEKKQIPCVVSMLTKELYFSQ
Method: as §1

cleavage of fluorometric substrate by caspase-9 (in words) [2]: able to cleave | cleavage of fluorometric substrate by caspase-8 (in words) [3]: able to cleave | cleavage of fluorometric substrate by caspase-7 (in words) [4]: able to cleave
Substance: Ac-DEVD-MCA
cleavage of substrate by S209A caspase-3 compared with wild-type (in words) [1]: virtually no effect; also recorded: as efficient as the wild-type
